Read-outs that look alike come from different tables or passages of the source.

The source of these data is PMC5021965 (Scientific Reports, 2016).

In data set [1] the test system is primary rat hepatocytes. The experiment in a line: Hepatotoxicity in primary rat hepatocytes (MTT cell viability, LDH release). The following applies: for effect on atorvastatin-induced cytotoxicity: primary hepatocytes of DM rats, atorvastatin 10 μM, GSH 0.5 and 2 mM, N-Acetylcysteine 0.5 and 2 mM, gemfibrozil 10 and 50 μM, ketoconazole 2 μM. The procedure: (§1) Another subset of experimental rats (CON, HFD and DM rats) were used for the primary rat hepatocytes isolation. […] Primary hepatocytes were isolated from experimental rats in a modified two-step collagenase perfusion method as previously reported. An aliquot of the hepatocyte suspension (at a density of 2.5 × 10^5/ml) was seeded in collagen-precoated plates. Following 4-h incubation, the medium was replaced with 500 μl fresh cultured medium. Twenty-four hours after plating, the medium was removed and the hepatocytes were overlaid with BD matrigel (0.25 mg/ml) in feeding medium (DMEM containing […] dexamethasone and 1% ITS) and cultured for another 24 h at 37 °C in a humidified atmosphere containing 5% CO2 for following experiments.
(§2) ROS generation was simultaneously measured using DCFH-DA as a fluorescent probe.

The subject of data set [2] is primary rat hepatocytes. Put plainly: ROS generation in primary rat hepatocytes (DCFH-DA probe). Format: cell-based. The conditions noted are these: primary hepatocytes of DM rats, atorvastatin 10 μM; GSH 0.5 and 2 mM, N-Acetylcysteine 0.5 and 2 mM, gemfibrozil 10 and 50 μM, ketoconazole 2 μM. The procedure: as §1, §2
The subject of data set [3] is HepG2 cells. The experiment in a line: Hepatotoxicity of atorvastatin in HepG2 cells (MTT). The conditions noted are these: 10 μM, 24 h.
Method: (§3) The cells were cultured in DMEM containing 10% FBS (fetal bovine serum), non-essential amino acids, antibiotics (100 IU/ml penicillin and 100 μg/ml streptomycin), 2 mM L-glutamine, and 3.7 g/L NaHCO3 in a humidified incubator of 5% CO2 and 95% air atmosphere at 37 °C.
Data set [4] deals with diabetic rats.
Method: Briefly, experimental rats were assigned randomly to three groups: control (CON) group (n = 5), high-fat diet (HFD) group (n = 5) and diabetic (DM) group (n = 20). The CON rats were fed on normal chow while both HFD rats and DM rats were fed on high-fat diet (TROPHIC Animal Feed High-tech Co. Ltd, Nantong, China). After six-week of dietary manipulation, DM rats intraperitoneally (i.p.) received a single dose of STZ (35 mg/kg).
The diabetic rats were randomly divided into four groups (n = 5 for each group). The first group served as control group (DM).
Following last dose, rats, fasted overnight, were anesthetized with diethyl ether and blood samples were collected for measurement of blood chemistry. Then, the animals were sacrificed; the liver samples were harvested for standard histology, hepatic biochemical measurement and Western blot.
For data set [5], the system named is HepG2 cells. The experiment in a line: Atorvastatin metabolism in HepG2 cells (formation of ortho-hydroxy atorvastatin). The conditions noted are these: HepG2, ketoconazole 2 and 10 μM; atorvastatin 30 μM, 30 min.
Method: as §3
For data set [6] the following is noted: phenobarbital i.p. 80 mg/kg.
Method: Blood samples were collected under light ether anesthesia via the oculi chorioideae vein at 5, 10, 20, 30, 45, 60, 120, 240, 360, and 720 min after first dose and last dose. After 3 or 4 samplings, the appropriate amount of normal saline was administered to the rats via the tail vein to compensate for blood loss. The blood collected was mixed properly with the anticoagulant and centrifuged at 4000 rpm for 10 min. The plasma was separated and stored at −80 °C until drug analysis.
The pharmacokinetic parameters were calculated using noncompartmental analysis on Phenix WinNonlin 6.1 (Pharsight, St. Louis, MO). All values were expressed as mean ± S.D. Results were analyzed using one-way analysis of variance (ANOVA) followed by Tukey’s post hoc test. Differences among groups were determined by nonparametric test when necessary. Statistical significance was assumed at P < 0.05.
Data set [7] deals with normal rats and phenobarbital pre-treated rats. Put plainly: Atorvastatin-induced hepatotoxicity in normal rats and rats pre-treated with phenobarbital. The conditions noted are these: phenobarbital i.p. 80 mg/kg with atorvastatin 10, 20, 40 mg/kg for 10 days. The procedure: For normal rats, they were randomly divided into vehicle (CON) rats, low-dose treatment (AL) rats, middle-dose treatment (AM) rats and high-dose treatment (AH) rats (n = 5 for each group). CON rats orally received daily dose of vehicle. […] The serum biochemical parameters, liver weight and ROS levels were measured as described above.

For data set [8], the system named is hepatic SLCO1B1. The experiment in a line: Activity and expression of hepatic SLCO1B1 in phenobarbital-treated rats. Format: in vivo, rat. The conditions noted are these: PB rats, phenobarbital i.p. 80 mg/kg.
Data set [9] concerns hepatic Cyp3a. The experiment in a line: Activity and expression of hepatic Cyp3a in phenobarbital-treated rats. The following applies: PB rats, phenobarbital i.p. 80 mg/kg. The procedure:
as §1
Repaglinide (20 μM) and midazolam (10 μM) were used as probe substrates to identify the activities of SLCO1B1 and Cyp3a, respectively.
Total rat liver extract was prepared in RIPA lysis buffer containing 1 mM PMSF to measure protein levels of Cyp3a and SLCO1B1. Protein concentrations were measured by the BCA protein assay kit. 50 μg proteins were separated on a SDS-polyacrylamide gel electrophoresis and transferred onto polyvinylidene fluoride membranes (Millipore Corporation, Billerica, MA, USA).

The mark [10] stands for this setting: DM-AL: diabetic rats, 10 mg/kg, 10 days.
Where [11] appears, read: DM-AM: diabetic rats, 20 mg/kg, 10 days.
[12] abbreviates: diabetic rats, 10 and 20 mg/kg, 10 days.
[13] abbreviates: serum, DM-AL: diabetic rats, 10 mg/kg, 10 days.
Setting [14] is: serum, DM-AM: 20 mg/kg, 10 days.
[15] abbreviates: serum, DM-AM: diabetic rats, 20 mg/kg, 10 days.

With `N[C@@H](CCC(=O)N[C@@H](CS)C(=O)NCC(=O)O)C(=O)O` [GSH, Glutathione], the “effect on atorvastatin-induced cytotoxicity” value in data set [1] is listed as “concentration-dependently reversed”. For the same molecule, the “effect on atorvastatin-induced production of ROS” value (shortened to “effect … of ROS”) in [2] is given as “concentration-dependently reversed”.
For `CC(=O)N[C@@H](CS)C(=O)O` [N-Acetylcysteine], the “effect on atorvastatin-induced cytotoxicity” value in data set [1] is reported as “concentration-dependently reversed”. Besides, in data set [2], the “effect … of ROS” value was “concentration-dependently reversed”.
On to `CC(C)c1c(C(=O)Nc2ccccc2)c(-c2ccccc2)c(-c2ccc(F)cc2)n1CC[C@@H](O)C[C@@H](O)CC(=O)O` [atorvastatin, Atorvastatin calcium], for which, in data set [1] (phenobarbital pre-treated rats, 96 h), the “cytotoxicity in primary hepatocytes of PB rats” value is recorded as “severe cytotoxicity”. Besides, the cell viability entry in data set [3] is reported as “little affected”. This molecule gave a Body weight in [4] (DM-AL: diabetic rats, 10 mg/kg atorvastatin orally once daily for 10 days) of 269.3 ± 5.3 g. Besides, in data set [4] (setting [10]), the FBG was 18.38 ± 1.75 mM, the FINS is 32.65 ± 2.15 mIU/L, the HOMA-IR turned out to be 27.56 ± 2.01 and the “Liver weight (% of body weight)” value is given as 6.94 ± 0.95 % of body weight. Besides, the “Spleen weight (% of body weight)” value in data set [4] (setting [10]) was 0.264 ± 0.027 % of body weight. Moreover, the “liver weight (% of body weight) compared with DM rats” value in data set [4] (DM-AM: 20 mg/kg, 10 days) is given as “almost doubled”. In data set [4] (DM-AM: diabetic rats, 20 mg/kg atorvastatin orally once daily for 10 days), this molecule gave a Body weight of 250.8 ± 22.4 g. In [4] (setting [11]), the FBG is listed as 18.34 ± 1.60 mM, the FINS was determined as 32.51 ± 4.45 mIU/L, the HOMA-IR was determined as 26.92 ± 2.52 and the “Liver weight (% of body weight)” value is 10.60 ± 2.25 % of body weight. The “Spleen weight (% of body weight)” value in data set [4] (setting [11]) was 0.392 ± 0.033 % of body weight. For the same molecule, in [4] (setting [12]), the “MDA levels in liver” value is listed as “increased”; the “SOD, CAT, GSH-pX and SDH activities in liver” value is on record as “dose-dependently lowered”. Further, the histopathological damage scores result in data set [4] (liver, DM-AL (10 mg/kg) and DM-AM (20 mg/kg) rats) is on record as “Higher”. Further, in [4] (setting [13]), the TC is 4.02 ± 0.71 mM and the TG came out at 5.40 ± 0.50 mM. For the same molecule, in [4] (setting [14]), the “AKP level compared with DM rats” value was “approximately doubled”, the “ALT level compared with DM rats” value is “approximately doubled”, the “AST level compared with DM rats” value is on record as “approximately doubled” and the “DBIL level compared with DM rats” value is “almost tripled”. Also, in [4] (setting [14]), the “TBIL level compared with DM rats” value was “almost tripled” and the “level of Alb” value was “significant decrease”. In data set [4] (setting [15]), this molecule had a TC of 3.42 ± 0.52 mM and a TG of 3.75 ± 0.70 mM.
`Cc1ccc(C)c(OCCCC(C)(C)C(=O)O)c1` [gemfibrozil]: in [1], the “effect on atorvastatin-induced cytotoxicity” value was “concentration-dependently reversed”. Also, the “effect … of ROS” value in data set [2] is “concentration-dependently reversed”.
`CC(=O)N1CCN(c2ccc(OCC3COC(Cn4ccnc4)(c4ccc(Cl)cc4Cl)O3)cc2)CC1` (stereo not drawn) [ketoconazole, Ketoconazole]: the “effect of co-incubation on atorvastatin metabolism” value in data set [5] was “concentration-dependently inhibited”.
In the case of `CCC1(c2ccccc2)C(=O)NC(=O)NC1=O` [phenobarbital, Phenobarbital], the “effect on plasma exposure of atorvastatin in rats” value in data set [6] is reported as “decreased”. The “effect of co-administration on atorvastatin hepatotoxicity” value in data set [7] is “markedly potentiated”. Further, the “activities and expressions of hepatic SLCO1B1” value in data set [8] is given as “significantly increased”. In addition, the “activities and expressions of hepatic Cyp3a” value in data set [9] was “significantly increased”.
